From the NIST ThermoML archive (doi:10.1021/je100362p)
± gives the expanded uncertainty stated by the source.

What was measured:
[1] = xn = mol fraction of the nth substance listed; settings: 101 kPa, Liquid; for speed of sound: Sing-around technique in a fixed-path interferometer
[2] = refractive index (Na D-line) (dimensionless); xn = mol fraction of the nth substance listed; settings: 101 kPa, Liquid, Standard Abbe refractometry

COc1ccccc1 [anisole] + CCCCCCCCCCO
Settings | mass density, 298.15 K [kg/m3] | mass density, 303.15 K [kg/m3] | mass density, 308.15 K [kg/m3] | refractive index, 298.15 K | refractive index, 303.15 K | refractive index, 308.15 K | speed of sound, 298.15 K [m/s] | speed of sound, 303.15 K [m/s] | speed of sound, 308.15 K [m/s]
[1], x1 = 0.0817 | 833.984 ± 0.54 | 830.48 ± 0.55 | 826.944 ± 0.55 | – | – | – | 1377.1 ± 1.1 | 1359.8 ± 1.1 | 1342.7 ± 1.1
[1], x1 = 0.144 | 840.044 ± 0.53 | 836.478 ± 0.54 | 832.875 ± 0.54 | – | – | – | 1375.3 ± 1.1 | 1357.9 ± 1.1 | 1340.7 ± 1.1
[1], x1 = 0.2047 | 846.31 ± 0.52 | 842.682 ± 0.52 | 839.02 ± 0.53 | – | – | – | 1373.6 ± 1.1 | 1356.1 ± 1.1 | 1338.8 ± 1.1
[1], x1 = 0.273 | 853.826 ± 0.5 | 850.126 ± 0.51 | 846.4 ± 0.52 | – | – | – | 1371.9 ± 1.1 | 1354.2 ± 1.1 | 1336.8 ± 1.1
[1], x1 = 0.3484 | 862.774 ± 0.49 | 858.992 ± 0.49 | 855.195 ± 0.5 | – | – | – | 1370.2 ± 1.1 | 1352.4 ± 1.1 | 1334.8 ± 1.1
[1], x1 = 0.4099 | 870.64 ± 0.47 | 866.789 ± 0.48 | 862.929 ± 0.49 | – | – | – | 1369.4 ± 1.1 | 1351.4 ± 1.1 | 1333.6 ± 1.1
[1], x1 = 0.4874 | 881.37 ± 0.45 | 877.429 ± 0.46 | 873.48 ± 0.47 | – | – | – | 1368.8 ± 1.1 | 1350.8 ± 1.1 | 1332.8 ± 1.1
[1], x1 = 0.544 | 889.862 ± 0.43 | 885.853 ± 0.44 | 881.832 ± 0.45 | – | – | – | 1369.2 ± 1.1 | 1350.9 ± 1.1 | 1332.8 ± 1.1
[1], x1 = 0.6071 | 900.075 ± 0.42 | 895.987 ± 0.42 | 891.877 ± 0.43 | – | – | – | 1370.4 ± 1.1 | 1351.9 ± 1.1 | 1333.6 ± 1.1
[1], x1 = 0.6699 | 911.097 ± 0.4 | 906.926 ± 0.4 | 902.722 ± 0.41 | – | – | – | 1372.3 ± 1.1 | 1353.6 ± 1.1 | 1335 ± 1.1
[1], x1 = 0.7359 | 923.763 ± 0.37 | 919.5 ± 0.38 | 915.191 ± 0.39 | – | – | – | 1375.5 ± 1.1 | 1356.5 ± 1.1 | 1337.6 ± 1.1
[1], x1 = 0.8171 | 941.067 ± 0.34 | 936.682 ± 0.35 | 932.241 ± 0.36 | – | – | – | 1381.6 ± 1.1 | 1362.2 ± 1.1 | 1343 ± 1.1
[1], x1 = 0.91 | 963.68 ± 0.3 | 959.139 ± 0.31 | 954.549 ± 0.32 | – | – | – | 1392.6 ± 1.1 | 1372.8 ± 1.1 | 1352.9 ± 1.1
[1], x1 = 0.9464 | 973.453 ± 0.28 | 968.846 ± 0.29 | 964.201 ± 0.3 | – | – | – | 1398 ± 1.1 | 1377.9 ± 1.1 | 1357.9 ± 1.1
[1], x1 = 1 | 989.145 ± 0.25 | 984.433 ± 0.26 | 979.712 ± 0.27 | – | – | – | 1406.9 ± 1.1 | 1386.8 ± 1.1 | 1366.5 ± 1.1
[2], x1 = 0.0817 | – | – | – | 1.43761 ± 0.00056 | 1.4356 ± 0.00058 | 1.43301 ± 0.0006 | – | – | –
[2], x1 = 0.144 | – | – | – | 1.44029 ± 0.00059 | 1.43803 ± 0.00061 | 1.43539 ± 0.00062 | – | – | –
[2], x1 = 0.2047 | – | – | – | 1.44304 ± 0.0006 | 1.44069 ± 0.00062 | 1.43799 ± 0.00063 | – | – | –
[2], x1 = 0.273 | – | – | – | 1.44629 ± 0.00062 | 1.44389 ± 0.00062 | 1.44125 ± 0.00062 | – | – | –
[2], x1 = 0.3484 | – | – | – | 1.45029 ± 0.00061 | 1.44799 ± 0.00062 | 1.44522 ± 0.00064 | – | – | –
[2], x1 = 0.4099 | – | – | – | 1.45394 ± 0.00061 | 1.45164 ± 0.00063 | 1.44877 ± 0.00064 | – | – | –
[2], x1 = 0.4874 | – | – | – | 1.45908 ± 0.0006 | 1.45684 ± 0.00062 | 1.45398 ± 0.00065 | – | – | –
[2], x1 = 0.544 | – | – | – | 1.46319 ± 0.00059 | 1.46099 ± 0.00062 | 1.45815 ± 0.00065 | – | – | –
[2], x1 = 0.6071 | – | – | – | 1.46829 ± 0.00058 | 1.46616 ± 0.00062 | 1.46323 ± 0.00066 | – | – | –
[2], x1 = 0.6699 | – | – | – | 1.47385 ± 0.00058 | 1.47181 ± 0.00062 | 1.46884 ± 0.00066 | – | – | –
[2], x1 = 0.7359 | – | – | – | 1.48043 ± 0.00057 | 1.47853 ± 0.00062 | 1.47539 ± 0.00066 | – | – | –
[2], x1 = 0.8171 | – | – | – | 1.48959 ± 0.00059 | 1.48774 ± 0.0006 | 1.48475 ± 0.00063 | – | – | –
[2], x1 = 0.91 | – | – | – | 1.50162 ± 0.00051 | 1.49999 ± 0.0006 | 1.49685 ± 0.00067 | – | – | –
[2], x1 = 0.9464 | – | – | – | 1.50672 ± 0.00047 | 1.50539 ± 0.00057 | 1.50231 ± 0.00069 | – | – | –
[2], x1 = 1 | – | – | – | 1.51495 ± 0.00041 | 1.51395 ± 0.00054 | 1.51095 ± 0.0007 | – | – | –
